Measured values taken from patent US20180259530A1, “Method and kit for testing chronic myelogenous leukemia (CML), method for isolating TKI-resistant CML cells, and agent for reducing TKI-resistance of CML and method for screening the same” (The University of Tokyo, priority 2017, published 2018).

Experiments:
Type in all cases: cell-based, human
[1] = test system: mRNA transcribed from the ADAM8 gene in HL60AML cell line; test: ADAM8 gene expression inhibition by shRNA (mRNA amount); details: HL60, lentiviral shRNA, 72 hours puromycin selection; non-target_shRNA defined as 1; FIG. 18
Procedure: After extraction of total RNA with RNAeasy reagent (QIAGEN), reverse transcription was performed with ReverTra Ace qPCR RT Master Mix (TOYOBO). The primer sequences used for PCR are shown below. Real-time quantitative PCRs were carried out in ABI-7000 Sequencing System with THUNDERBIRD SYBR qPCR Mix, following the manufacturer's instructions (TOYOBO). Each assay was performed in triplicate. 18S rRNA and β-actin were used as endogenous controls.
The amount of mRNA transcribed from the ADAM8 gene in the cells was measured after treatment of an HL60AML cell line with ADAM8_shRNA 1 (SEQ ID NO: 45), ADAM8_shRNA 2 (SEQ ID NO: 46) and ADAM8_shRNA_3 (SEQ ID NO: 47). The target sequences of ADAM8_shRNA_1, ADAM8_shRNA_2 and ADAM8_shRNA_3 are listed as SEQ ID NO: 49, 50 and 51, respectively. Specifically, pLKO.1-puro-CMV-tGFP (Sigma Aldrich Japan) incorporating DNA encoding shRNA was transferred into HEK293 cells together with pMISSION GAG POL (Sigma Aldrich Japan) and pMISSION VSV-G (Sigma Aldrich Japan), to obtain an shRNA-expressing lentivirus. The obtained lentivirus was used to infect HL60, 1 μg/ml puromycin was used for 72 hours of selection, and ADAM8 gene expression in the selected cells was analyzed. The expression level of the ADAM8 gene when using non-target_shRNA that targets a non-ADAM8 gene (SEQ ID NO: 48, target sequence: SEQ ID NO: 52) (indicated as “non-target” in the graph) was defined as 1.

CD34+ADAM8- cells = test: Cell viability assay with GM6001, CD34+ADAM8- cells; details: GM6001 2.5 μM; FIG. 20
Procedure: (§1) The cell viability assay and apoptosis assay were carried out according to the method described in Ma, L. et al., Sci. Transl. Med. 6, 252ral21(2014).
(§2) CD34+ADAM8+ cells and CD34+ADAM8− cells were used for a cell viability assay in the absence of GM6001 (Merck Millipore) and in the presence of GM6001 at specific concentrations (2.5 μM, 5 μM, 20 μM). […] GM6001 was confirmed to have no effect on the cell viability of either CD34+ADAM8+ cells or CD34+ADAM8− cells, at a concentration of 2.5 μM.

CD34+ADAM8+ cells = test: Cell viability assay with GM6001, CD34+ADAM8+ cells; details: GM6001 2.5 μM; FIG. 20
Procedure: as §1, §2

[2] = test system: CD34+ADAM8+ cells (CML-CP9- and CML-CP23-derived); test: Cell viability assay with imatinib plus GM6001; details: 1.0 μM imatinib and 2.5 μM GM6001 vs 1.0 μM imatinib alone; FIG. 21, 22
Procedure: as §1

[3] = test system: CD34+ADAM8+ CML cells of CML-CP patient; test: Cell viability assay of CD34+ADAM8+ and CD34+ADAM8- cell fractions with imatinib; details: 48 hours exposure to imatinib; FIG. 11
Procedure: as §1

[4] = test system: CD34+ADAM8+ CML cells of CML-CP patient; test: Apoptosis assay of CD34+ADAM8+ and CD34+ADAM8- cell fractions with imatinib; details: 48 hours exposure to imatinib; FIG. 12
Procedure: as §1

CML-pre-HPCs = test: Apoptosis assay in hematopoietic differentiation of CML-iPSCs; details: 5 μM imatinib, 48 hours from medium exchange; FIG. 5

ADAM8_shRNA_3: shRNA that inhibits expression of the ADAM8 gene, SEQ ID NO: 47, target sequence SEQ ID NO: 51 (CCGGGGAAUAGUCAGGACAGGUUCCCUCGAGGGAACCUGUCCUGACUAUUCCUUUUU)
knockdown of ADAM8 gene expression (mRNA) [1]: confirmed to have the ability to knockdown ADAM8

CNC(=O)[C@H](Cc1c[nH]c2ccccc12)NC(=O)[C@@H](CC(=O)NO)CC(C)C [GM6001, (2R)—N^4-Hydroxy-N^1-[(1S)-2-(1H-indol-3-ylmethyl)-2-(methylamino)-2-oxoethyl]-2-(2-methylpropyl)butanediamide]
effect on cell viability of CD34+ADAM8- cells (CD34+ADAM8- cells): no effect
effect on cell viability of CD34+ADAM8+ cells (CD34+ADAM8+ cells): no effect
TKI resistance (cell viability) on inhibition of ADAM8 activity [2]: TKI resistance is lowered

ADAM8_shRNA_1: shRNA that inhibits expression of the ADAM8 gene, SEQ ID NO: 45, target sequence SEQ ID NO: 49 (CCGGGGACAAGCUAUAUCAGAAACUCUCGAGAGUUUCUGAUAUAGCUUGUCCUUUUU)
knockdown of ADAM8 gene expression (mRNA) [1]: confirmed to have the ability to knockdown ADAM8

Cc1ccc(NC(=O)c2ccc(CN3CCN(C)CC3)cc2)cc1Nc1nccc(-c2cccnc2)n1 [imatinib]
imatinib resistance (cell viability) of ADAM8+ CML cells compared to ADAM8- CML cells [3]: greater imatinib resistance
apoptosis induced by imatinib in ADAM8+ CML cells compared to ADAM8- CML cells [4]: suppressed
apoptosis induction in CML-pre-HPCs (CML-pre-HPCs): not induced to undergo apoptosis

ADAM8_shRNA_2: shRNA that inhibits expression of the ADAM8 gene, SEQ ID NO: 46, target sequence SEQ ID NO: 50 (CCGGGGGCCUGGAGAUUUGGAAUAGCUCGAGCUAUUCCAAAUCUCCAGGCCCUUUUU)
knockdown of ADAM8 gene expression (mRNA) [1]: confirmed to have the ability to knockdown ADAM8
